*1 amine or outer side, *2 acyl side, *3 side chain or, on linkers, in order; H or OH if unused. Where a SMILES comes first, the peptide text is derived from it. Bridges are numbered along the chain shown (N, C = ends). [ ]: non-standard residue; d: D form. Phe(4-guanidino) = N=C(N)Nc1ccc(C[C@H](N)C(=O)O)cc1; X23 = O=C([C@H](Cc1ccc(C(F)(F)F)nc1)N[*:1])[*:2]; Ala(pyrimidin-5-yl) = N[C@@H](Cc1cncnc1)C(=O)O; X81 = Cc1ccc(C[C@H](N[*:1])C(=O)[*:2])c(F)n1; X7 = C[C@H](N[*:1])C12CC(C(=O)[*:2])(C1)C2; X25 = O=C([C@H](Cc1ccc(F)nc1)N[*:1])[*:2]; X27 = Cc1ccc(C[C@H](N[*:1])C(=O)[*:2])cn1; X3 = CN([C@@H](Cc1cncnc1)C(=O)[*:2])[*:1]; Leu(4,5-dehydro) = C=C(C)C[C@H](N)C(=O)O; NMeAha = CN[C@@H](CCN=[N+]=[N-])C(=O)O; Nle(5,5-F2) = CC(F)(F)CC[C@H](N)C(=O)O; Phe(2-CN) = N#Cc1ccccc1C[C@H](N)C(=O)O; 1Nal = N[C@@H](Cc1cccc2ccccc12)C(=O)O; Phe(2-F) = N[C@@H](Cc1ccccc1F)C(=O)O; X70 = O=C(C1CC2(C1)CN([*:1])C2)[*:2]; NMe3Pal = CN[C@@H](Cc1cccnc1)C(=O)O; X1 = O=C(C12CC(CN[*:1])(C1)C2)[*:2]; NMeR = CN[C@@H](CCCNC(=N)N)C(=O)O; Ala(cPr) = N[C@@H](CC1CC1)C(=O)O; NMeF = CN[C@@H](Cc1ccccc1)C(=O)O; PhLac = O=C(O)[C@@H](O)Cc1ccccc1; 3Pal = N[C@@H](Cc1cccnc1)C(=O)O; 4Pal = N[C@@H](Cc1ccncc1)C(=O)O; Ahp(2) = CCCCC[C@H](N)C(=O)O; Ala(CN) = N#CC[C@H](N)C(=O)O; Cba = N[C@@H](CC1CCC1)C(=O)O; hLeu = CC(C)CC[C@H](N)C(=O)O; αMeC = C[C@](N)(CS)C(=O)O; NMeA = CN[C@@H](C)C(=O)O; Nle = CCCC[C@H](N)C(=O)O; Pra = C#CC[C@H](N)C(=O)O; Nva = CCC[C@H](N)C(=O)O

Sequence of KRAS-G12D protein (P01116 1-188 isoform P01116-2 G12D): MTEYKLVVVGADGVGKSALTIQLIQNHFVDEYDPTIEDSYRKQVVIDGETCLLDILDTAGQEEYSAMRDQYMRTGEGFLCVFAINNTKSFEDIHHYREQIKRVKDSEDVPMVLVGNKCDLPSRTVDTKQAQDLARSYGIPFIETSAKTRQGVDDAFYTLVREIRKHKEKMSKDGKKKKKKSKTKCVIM

The assay has as its target KRAS-G12D protein (Homo sapiens, UniProt P01116, G12D). In words: SOS-mediated nucleotide exchange assay (BODIPY-GDP / Tb-streptavidin TR-FRET). In kind it is biochemical.
A word on the EC50: it is the midpoint of the concentration-response curve. With `C[C@H]1C(=O)N[C@@H](Cc2cncnc2)C(=O)N[C@@H](CC2CC2)C(=O)N[C@@H](Cc2ccccc2F)C(=O)N[C@@H](CCC(C)(F)F)C(=O)N(C)[C@@H](Cc2ccccc2)C(=O)NCC23CC(C2)(C3)C(=O)O[C@@H](Cc2ccccc2)C(=O)N1C` [compound 276, cyclo(FLac-NMeA-PyrimAla-cPrA-Phe2F-Nle3F2-NMeF-amBCP)] (cyclo([Ala(cPr)][Phe(2-F)][Nle(5,5-F2)][NMeF][X1][PhLac][NMeA][Ala(pyrimidin-5-yl)])), the concentration giving a half-maximal response (EC50) turned out to be 1 nM. This lies in the single-digit nanomolar range.
Turning to `CCCC[C@@H]1NC(=O)[C@H](Cc2cccnc2)NC(=O)[C@H](C)N(C)C(=O)[C@H](Cc2ccc(F)nc2)NC(=O)C23CC(CNC(=O)[C@H](Cc4cccnc4)N(C)C(=O)[C@H](CCCC)NC(=O)[C@H](Cc4ccccc4F)NC1=O)(C2)C3` [compound 165, cyclo(4F3Pal-NMeA-3Pal-Nle-Phe2F-Nle-NMe3Pal-amBCP)] (cyclo([3Pal][Nle][Phe(2-F)][Nle][NMe3Pal][X1][X25][NMeA])), the EC50 was 1780 nM.
As for `CCCC[C@@H]1NC(=O)[C@H](Cc2ccncc2)NC(=O)[C@H](CCCNC(=N)N)NC(=O)[C@H](Cc2cccc3ccccc23)NC(=O)CSC[C@@](C)(C(N)=O)NC(=O)[C@H](Cc2cccnc2)N(C)C(=O)[C@H](CCCC)NC(=O)[C@H](Cc2ccc(O)cc2)NC1=O` [compound 333, cyclo(INal-R-4Pal-Nle-Y-Nle-NMe3Pal-aMeCl-ClAc)] ({CH2CO}-[1Nal]R[4Pal][Nle]Y[Nle][NMe3Pal][αMeC]-NH2; thioether N-8), the figure is 19.9 nM; as for `COc1ccc(C[C@@H]2NC(=O)[C@H](CC3CCC3)NC(=O)[C@H](Cc3cccnc3)NC(=O)[C@H](CCCNC(=N)N)NC(=O)[C@H](Cc3ccccc3)NC(=O)CSC[C@](C)(C(N)=O)NC(=O)[C@@H]3CCCCCCCC[C@H](NC2=O)C(=O)N3C)cc1` (single isomer, unassigned) [SEQ ID NO: 191], 324 nM; as for `CCCC[C@@H]1NC(=O)[C@H](Cc2cncnc2)NC(=O)[C@H](C)N(C)C(=O)[C@H](Cc2ccccc2)OC(=O)C23CC(C2)(C3)[C@H](C)NC(=O)[C@H](Cc2cccnc2)N(C)C(=O)[C@H](CCCC)NC(=O)[C@H](Cc2ccccc2F)NC1=O` [compound 121, cyclo(FLac-NMeA-PyrimAla-Nle-Phe2F-Nle-NMe3Pal-SMeamBCP)] (cyclo([NMe3Pal][X7][PhLac][NMeA][Ala(pyrimidin-5-yl)][Nle][Phe(2-F)][Nle])), 33.5 nM.
Then `CCCC[C@@H]1NC(=O)[C@H](Cc2ccc(C(F)(F)F)nc2)NC(=O)[C@H](CCN=[N+]=[N-])N(C)C(=O)[C@H](Cc2ccccc2)OC(=O)C23CC(CNC(=O)[C@H](Cc4cccnc4)N(C)C(=O)[C@H](CCCC)NC(=O)[C@H](Cc4ccccc4F)NC1=O)(C2)C3` [compound 241, cyclo(FLac-NMeDabN3-4CF33Pal-Nle-Phe2F-Nle-NMe3Pal-amBCP)] (cyclo([NMe3Pal][X1][PhLac][NMeAha][X23][Nle][Phe(2-F)][Nle])), with 435 nM; and `CCCCC[C@@H]1NC(=O)[C@H](Cc2ccccc2C#N)NC(=O)[C@H](CC2CCC2)NC(=O)[C@H](Cc2cccnc2)NC(=O)[C@H](CCCNC(=N)N)NC(=O)[C@H](Cc2ccccc2)NC(=O)CSC[C@@](C)(C(N)=O)NC(=O)[C@H](Cc2ccccc2)N(C)C1=O` [compound 375, cyclo(F-R-3Pal-cBuA-Phe2CN-Ahp-NMeF-aMeCl-ClAc)] ({CH2CO}-FR[3Pal][Cba][Phe(2-CN)][Ahp(2)][NMeF][αMeC]-NH2; thioether N-8), with 57.9 nM.
Then `CCCC[C@@H]1NC(=O)[C@H](Cc2cccnc2)NC(=O)[C@H](C)N(C)C(=O)[C@H](Cc2ccc(C)nc2)NC(=O)C23CC(CNC(=O)[C@H](Cc4cccnc4)N(C)C(=O)[C@H](CCCC)NC(=O)[C@H](Cc4ccccc4F)NC1=O)(C2)C3` [compound 164, cyclo(4Me3Pal-NMeA-3Pal-Nle-Phe2F-Nle-NMe3Pal-amBCP)] (cyclo([3Pal][Nle][Phe(2-F)][Nle][NMe3Pal][X1][X27][NMeA])), with 2890 nM; and `CCCCC[C@@H]1NC(=O)[C@H](Cc2ccc(OC)cc2)NC(=O)[C@H](CC2CCC2)NC(=O)[C@H](Cc2cccnc2)NC(=O)[C@H](CCCNC(=N)N)NC(=O)[C@H](Cc2ccccc2)OC(=O)C23CC(CNC(=O)[C@H](Cc4ccccc4)N(C)C1=O)(C2)C3` [compound 211, cyclo(FLac-R-3Pal-cBuA-TyrOMe-Ahp-NMeF-amBCP)] (cyclo([PhLac]R[3Pal][Cba]Y(Me)[Ahp(2)][NMeF][X1])), with 10.8 nM; and `CCCC[C@@H]1NC(=O)[C@H](Cc2ccc(OC)cc2)NC(=O)[C@H](CC2CCC2)NC(=O)[C@H](Cc2cccnc2)NC(=O)[C@H](CCCNC(=N)N)NC(=O)[C@H](Cc2ccccc2)NC(=O)C23CC(CNC(=O)[C@H](Cc4ccccc4)N(C)C1=O)(C2)C3` [compound 98, cyclo(F-R-3Pal-cBuA-TyrOMe-Nle-NMeF-amBCP)] (cyclo(FR[3Pal][Cba]Y(Me)[Nle][NMeF][X1])), with 5.47 nM.
As for `CCCC[C@@H]1NC(=O)[C@H](Cc2ccc(C)nc2F)NC(=O)[C@H](C)N(C)C(=O)[C@H](Cc2ccccc2)OC(=O)C23CC(CNC(=O)[C@H](Cc4ccccc4)N(C)C(=O)[C@H](CCCC)NC(=O)[C@H](Cc4ccccc4F)NC1=O)(C2)C3` [compound 311, cyclo(FLac-NMeA-3Pal2F4Me-Nle-Phe2F-Nle-NMeF-amBCP)] (cyclo([NMeA][X81][Nle][Phe(2-F)][Nle][NMeF][X1][PhLac])), the midpoint of the response, the EC50, lay at 892 nM.
Then `CCCC[C@@H]1NC(=O)[C@H](Cc2ccc(OC)cc2)NC(=O)[C@H](CC2CCC2)NC(=O)[C@H](Cc2cccnc2)NC(=O)[C@H](CCCNC(=N)N)NC(=O)[C@H](Cc2ccccc2)NC(=O)C2CC3(C2)CN(C3)C(=O)[C@H](Cc2ccccc2)N(C)C1=O` [compound 102, cyclo(F-R-3Pal-cBuA-TyrOMe-Nlc-NMeF-spiro44)] (cyclo(FR[3Pal][Cba]Y(Me)[Nle][NMeF][X70])), with 7340 nM; and `C=C(C)C[C@@H]1NC(=O)[C@H](CC2CC2)NC(=O)[C@H](Cc2cncnc2)NC(=O)[C@H](C)N(C)C(=O)[C@H](Cc2ccccc2)OC(=O)C23CC(CNC(=O)[C@H](Cc4ccccc4)N(C)C(=O)[C@H](CCC(C)C)NC1=O)(C2)C3` [compound 287, cyclo(FLac-NMeA-PyrimAla-cPrA-deHLeu-hL-NMeF-amBCP)] (cyclo([Ala(cPr)][Leu(4,5-dehydro)][hLeu][NMeF][X1][PhLac][NMeA][Ala(pyrimidin-5-yl)])), with 720 nM.
Then `CCCC[C@@H]1NC(=O)[C@H](Cc2cccnc2)NC(=O)[C@H](C)N(C)C(=O)[C@H](Cc2ccccc2)OC(=O)C23CC(CNC(=O)[C@H](Cc4cncnc4)N(C)C(=O)[C@H](CCCC)NC(=O)[C@H](Cc4ccccc4F)NC1=O)(C2)C3` [compound 401, cyclo(FLac-NMeA-3Pal-Nle-Phe2F-Nle-NMeAlaPyrim-amBCP)] (cyclo([3Pal][Nle][Phe(2-F)][Nle][X3][X1][PhLac][NMeA])), with 29 nM; and `CCC[C@@H]1NC(=O)[C@H](Cc2ccc(O)cc2)NC(=O)[C@H](CC(C)C)NC(=O)[C@H](Cc2ccc(O)cc2)NC(=O)[C@H](CCCNC(=N)N)N(C)C(=O)[C@H](Cc2ccccc2)NC(=O)CSC[C@H](C(N)=O)NC(=O)[C@H](Cc2ccccc2)N(C)C1=O` [compound 176, cyclo(F-NMeR-Y-L-Y-Nva-NMeF-dCl-ClAc)] ({CH2CO}-F[NMeR]YLY[Nva][NMeF][dC]-NH2; thioether N-8), with 2420 nM.
Then `CCCCC[C@@H]1NC(=O)[C@H](Cc2ccc(OC)cc2)NC(=O)[C@H](CCCC)NC(=O)[C@H](Cc2ccc(NC(=N)N)cc2)NC(=O)[C@H](CCCNC(=N)N)NC(=O)[C@H](Cc2ccccc2)NC(=O)CSC[C@H](C(N)=O)NC(=O)[C@H](Cc2ccccc2)N(C)C1=O` [compound 350, cyclo(F-R-Phe4Gn-Nle-TyrOMe-Abp-NMeF-dCl-ClAc)] ({CH2CO}-FR[Phe(4-guanidino)][Nle]Y(Me)[Ahp(2)][NMeF][dC]-NH2; thioether N-8), with 35.4 nM.
In the case of `CCCC[C@@H]1NC(=O)[C@H](Cc2cccnc2)NC(=O)[C@H](CC#N)NC(=O)[C@H](Cc2ccccc2)OC(=O)C23CC(CNC(=O)[C@H](Cc4cccnc4)N(C)C(=O)[C@H](CCCC)NC(=O)[C@H](Cc4ccccc4F)NC1=O)(C2)C3` [compound 252, cyclo(FLac-AlaCN-3Pal-Nle-Phe2F-Nle-NMe3Pal-amBCP)] (cyclo([3Pal][Nle][Phe(2-F)][Nle][NMe3Pal][X1][PhLac][Ala(CN)])), the EC50 is 3750 nM.
For the compound `CCCCC[C@@H]1NC(=O)[C@H](Cc2ccc(OC)cc2)NC(=O)[C@H](CC2CCC2)NC(=O)[C@H](Cc2cnn(C)c2)NC(=O)[C@H](CCCNC(=N)N)NC(=O)[C@H](Cc2ccccc2)NC(=O)CSC[C@@](C)(C(N)=O)NC(=O)[C@H](Cc2ccccc2)N(C)C1=O` [compound 372, cyclo(F-R-Ala4PyzlMe-cBuA-TyrOMe-Ahp-NMeF-aMeCl-ClAc)], the EC50 was 10.2 nM.
Then `CCCCC[C@@H]1NC(=O)[C@H](Cc2ccc(OC)cc2)NC(=O)[C@H](CC2CCC2)NC(=O)[C@H](Cc2ccn(C)n2)NC(=O)[C@H](CCCNC(=N)N)NC(=O)[C@H](Cc2ccccc2)NC(=O)CSC[C@@](C)(C(N)=O)NC(=O)[C@H](Cc2ccccc2)N(C)C1=O` [compound 362, cyclo(F-R-MePyzAla-cBuA-TyrOMe-Ahp-NMeF-aMeCl-ClAc)], with 1810 nM; and `C#CC[C@@H]1NC(=O)[C@H](CC2CCC2)NC(=O)[C@H](Cc2cccnc2)NC(=O)[C@H](CCCNC(=N)N)NC(=O)[C@H](Cc2ccccc2)NC(=O)CSC[C@@](C)(C(N)=O)NC(=O)[C@H](Cc2ccccc2)N(C)C(=O)[C@H](CCCC)NC1=O` [compound 51, cyclo(F-R-3Pal-cBuA-Pra-Nle-NMeF-aMeCl-ClAc)] ({CH2CO}-FR[3Pal][Cba][Pra][Nle][NMeF][αMeC]-NH2; thioether N-8), with 298 nM.
As for `CCCC[C@@H]1NC(=O)[C@H](Cc2ccc(C(F)(F)F)nc2)NC(=O)[C@H](CCCn2ccnc2)N(C)C(=O)[C@H](Cc2ccccc2)OC(=O)C23CC(CNC(=O)[C@H](Cc4ccccc4)N(C)C(=O)[C@H](CCCC)NC(=O)[C@H](Cc4ccccc4F)NC1=O)(C2)C3` (single isomer, unassigned) [compound 219, cyclo(FLac-NMeNvaImid-4CF33Pal-Nle-Phe2F-Nle-NMeF-amBCP)], the figure is 62.8 nM.
